Values joined by “and” are separate entries in the source; they are usually repeats but may differ in a detail not shown here. Equal values may be shown once.
Tested on: lepidoptera eggs (Spodoptera exigua)
Assay: Direct contact overlay LC assay, caterpillar eggs
Settings: for Times more active in the C13 blend than when tested alone: LC50 alone vs share of C13 LC50 (1% solution); for Direct AVG LC50 / Estimated LC50: mortality after five days; for Direct AVG LC50: diluent 0.25% Tween 81; for Estimated LC50: nested set, probit analysis, tested alone in 0.25% Tween 81

Structure (SMILES)	Times more active in the C13 blend than when tested alone	Direct AVG LC50	Estimated LC50
Cc1ccc(C(C)C)cc1 [p-cymene]	72 X	1.539%	2.68% and 2.682%
C=C(C)[C@H]1CC=C(C)CC1 [d-limonene]	64 X	2.093%	1.9% and 1.905%
CC1=CC=C(C(C)C)CC1 [α-terpinene]		4.336%	4.77% and 4.776%

Source: patent publication US20100316738A1, “METHODS OF INHIBITING, PREVENTING, KILLING AND/OR REPELLING INSECTS USING SIMULATED BLENDS OF CHENOPODIUM EXTRACTS” (priority 2009, published 2010)
